Among the test systems are A498 renal; RXF 393 renal; SNB-75 CNS; SK-MEL-2 melanoma; UACC-62 melanoma; EKVX NSCLC; NCI-H226 lung; HOP-62 NSCLC; LOX IMVI melanoma; SN12C renal; MDA-N; HT29 colon; HCT-116 colon; SK-OV-3 ovarian; HS 578T breast; SW-620 colon; KM12 colon; SNB-19 CNS.
Assay in all cases: NCI anticancer screen, dose series, 48 h

Structures are written as SMILES.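 In this assay, cells in 96-well plates receive the compound at five concentrations for 48 hours. Endpoints are linearly interpolated between the surrounding concentrations. TGI: total growth inhibition.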 Some results are limits rather than exact numbers.

With `Cc1ccc(C(=O)Nc2ccc(CP(=O)(O)O)cc2)cc1NC(=O)Nc1cc(C(=O)Nc2ccc(CP(=O)(O)O)cc2)ccc1C`, the TGI in the assay with A498 renal, with RXF 393 renal, with SNB-75 CNS, in the assay on SK-MEL-2 melanoma, in the assay on UACC-62 melanoma and with EKVX NSCLC was > 100 µM in each case. In addition, the TGI with NCI-H226 lung, in the assay on HOP-62 NSCLC, with LOX IMVI melanoma, in the assay with SN12C renal, with MDA-N and with HT29 colon was > 100 µM throughout. In addition, the TGI with HCT-116 colon, with SK-OV-3 ovarian, in the assay with HS 578T breast, in the assay with SW-620 colon and in the assay on KM12 colon was > 100 µM throughout.
On to `CC1OC2OC3C(OCC(O)C3O)OC(=O)[C@]34CCC(C)(C)CC3C3=CCC5[C@@]6(C)C[C@H](O)[C@H](OC7OC(CO)C(O)C(O)C7OC7OC(COC(=O)CC(C)(O)CC(=O)OC1C(O)C2O)C(O)C(O)C7O)[C@@](C)(CO)C6CC[C@@]5(C)[C@]3(C)CC4` (stereo partly specified), for which the TGI is 2.89 µM in the assay on SNB-75 CNS; 2.85 µM in the assay with SK-MEL-2 melanoma; 2.81 µM in the assay with UACC-62 melanoma; 5.19 µM in the assay on NCI-H226 lung; 2.69 µM in the assay with HOP-62 NSCLC; 2.91 µM in the assay on LOX IMVI melanoma. Also, the TGI was determined as 4.37 µM with SN12C renal; 3.18 µM in the assay with SNB-19 CNS; 2.73 µM in the assay with MDA-N; 3.18 µM in the assay on HT29 colon; 3.39 µM with HCT-116 colon; 2.79 µM in the assay on SK-OV-3 ovarian. Further, the TGI came to 3.54 µM with HS 578T breast, 2.44 µM in the assay with SW-620 colon and 2.89 µM with KM12 colon.
On to `Clc1ccc(CSCc2ccc(Cl)cc2Cl)c(Cl)c1`, for which the TGI was > 100 µM in the assay with A498 renal; 94.2 µM in the assay on RXF 393 renal; 89 µM in the assay on SNB-75 CNS; 51.3 µM in the assay on SK-MEL-2 melanoma; > 100 µM with UACC-62 melanoma; > 100 µM with EKVX NSCLC. Besides, the TGI in the assay on NCI-H226 lung, in the assay with HOP-62 NSCLC, with LOX IMVI melanoma, in the assay on SN12C renal, in the assay on SNB-19 CNS and in the assay on MDA-N was > 100 µM in each case. Moreover, the TGI with HT29 colon, with HCT-116 colon, in the assay with SK-OV-3 ovarian, in the assay on HS 578T breast, in the assay with SW-620 colon and in the assay with KM12 colon was > 100 µM each time.
For `O=C1/C(=C/c2cccc([N+](=O)[O-])c2)N=C(c2ccccc2)N1c1ccc2c(c1)Sc1cc(N3C(=O)/C(=C/c4cccc([N+](=O)[O-])c4)N=C3c3ccccc3)ccc1N2`, the TGI came to 55.1 µM with A498 renal; 62.2 µM in the assay with RXF 393 renal; 34.3 µM in the assay on SNB-75 CNS; 39.9 µM in the assay on SK-MEL-2 melanoma; 31.7 µM with UACC-62 melanoma; 62.9 µM in the assay with EKVX NSCLC. For the same compound, the TGI with HOP-62 NSCLC is 49.5 µM; in the assay on LOX IMVI melanoma, 74.1 µM; in the assay on SNB-19 CNS, 40.2 µM; with MDA-N it was 35 µM; in the assay on HT29 colon it was > 100 µM; in the assay on HCT-116 colon, > 100 µM. Moreover, the TGI was 30.9 µM in the assay on SK-OV-3 ovarian, > 100 µM in the assay on HS 578T breast, > 100 µM in the assay on SW-620 colon and > 100 µM with KM12 colon.
In the case of `CO/N=C/c1c(-c2ccc(Cl)cc2)c(/C=N/OC)n2c1sc1ccccc12`, the TGI with RXF 393 renal, in the assay on SNB-75 CNS, with SK-MEL-2 melanoma, with UACC-62 melanoma, in the assay on EKVX NSCLC and with HOP-62 NSCLC was > 100 µM in each case. Moreover, the TGI in the assay on LOX IMVI melanoma, with SN12C renal, with SNB-19 CNS, in the assay on MDA-N, in the assay with HT29 colon and with HCT-116 colon was > 100 µM throughout. Further, the TGI in the assay on SK-OV-3 ovarian, in the assay with HS 578T breast, in the assay on SW-620 colon and in the assay with KM12 colon was > 100 µM throughout.
Regarding `Cc1c(C)c(C)c(CSC(=N)N)c(C)c1C`, the TGI with A498 renal was 29.8 µM; in the assay with RXF 393 renal, 33.2 µM; in the assay on SNB-75 CNS it was 29 µM; in the assay with SK-MEL-2 melanoma, 27.8 µM; in the assay with UACC-62 melanoma it was 24.2 µM; in the assay on EKVX NSCLC it was 28 µM. In addition, the TGI was found to be 27.8 µM in the assay on NCI-H226 lung; 29.1 µM in the assay with HOP-62 NSCLC; 79.2 µM in the assay with LOX IMVI melanoma; 32.3 µM with SN12C renal; 27.9 µM in the assay with SNB-19 CNS; 40.3 µM with MDA-N. Further, the TGI with HT29 colon was found to be 25.6 µM; in the assay with HCT-116 colon it was 30 µM; in the assay on SK-OV-3 ovarian it was 34.2 µM; with HS 578T breast, 36.4 µM; in the assay with SW-620 colon, 29 µM; in the assay on KM12 colon, 39.3 µM.
With `CCOC(=O)c1cc(C2(OC)CCN(Cc3ccccc3)C2=O)c(-c2cc(C)no2)[nH]1` (stereo unspecified), the TGI in the assay on A498 renal, with RXF 393 renal, in the assay with SNB-75 CNS, in the assay with SK-MEL-2 melanoma, in the assay on UACC-62 melanoma and with EKVX NSCLC was > 100 µM in each case. The TGI in the assay on HOP-62 NSCLC, with SNB-19 CNS, with MDA-N, with HT29 colon, in the assay on HCT-116 colon and with SK-OV-3 ovarian was > 100 µM throughout. Also, the TGI with HS 578T breast, in the assay on SW-620 colon and in the assay on KM12 colon was > 100 µM throughout.
Turning to `CC(C)(C)OC(=O)N1C(=O)OC[C@@H]2C=C[C@@H]21`, the TGI with A498 renal, in the assay with RXF 393 renal, with SK-MEL-2 melanoma, in the assay with UACC-62 melanoma, with EKVX NSCLC and in the assay on HOP-62 NSCLC was > 100 µM in each case. In addition, the TGI with LOX IMVI melanoma, with SN12C renal, in the assay on SNB-19 CNS, with MDA-N, with HT29 colon and in the assay with HCT-116 colon was > 100 µM throughout. For the same compound, the TGI with SK-OV-3 ovarian, with HS 578T breast, in the assay on SW-620 colon and with KM12 colon was > 100 µM in each case.

The values are drawn from PubChem BioAssay (NCI).
